Experimental data from ChEMBL document CHEMBL1136561, “Thiophene-based vitronectin receptor antagonists” (Bioorg Med Chem Lett, 2003).
pIC50: −log10 of the molar value.

Legend:
Integrin alpha-V/beta-5 = Integrin alpha-V/beta-5 (Homo sapiens, UniProt P06756+P18084); experiment: Inhibition of vitronectin binding to HT-29 cells expressing integrin alphaV-beta5; format: cell-based
[1] = target: Fibronectin receptor (Integrin alpha-5/beta-1 and alpha-V/beta-3) (Homo sapiens) (UniProt P05106+P05556+P06756+P08648); experiment: Selectivity ratio for alpha5-beta1 and alphaV-beta3 integrins; format: protein-complex assay
Chain of Fibronectin receptor (Integrin alpha-5/beta-1 and alpha-V/beta-3) (Homo sapiens) (P05106 whole entry, looked up): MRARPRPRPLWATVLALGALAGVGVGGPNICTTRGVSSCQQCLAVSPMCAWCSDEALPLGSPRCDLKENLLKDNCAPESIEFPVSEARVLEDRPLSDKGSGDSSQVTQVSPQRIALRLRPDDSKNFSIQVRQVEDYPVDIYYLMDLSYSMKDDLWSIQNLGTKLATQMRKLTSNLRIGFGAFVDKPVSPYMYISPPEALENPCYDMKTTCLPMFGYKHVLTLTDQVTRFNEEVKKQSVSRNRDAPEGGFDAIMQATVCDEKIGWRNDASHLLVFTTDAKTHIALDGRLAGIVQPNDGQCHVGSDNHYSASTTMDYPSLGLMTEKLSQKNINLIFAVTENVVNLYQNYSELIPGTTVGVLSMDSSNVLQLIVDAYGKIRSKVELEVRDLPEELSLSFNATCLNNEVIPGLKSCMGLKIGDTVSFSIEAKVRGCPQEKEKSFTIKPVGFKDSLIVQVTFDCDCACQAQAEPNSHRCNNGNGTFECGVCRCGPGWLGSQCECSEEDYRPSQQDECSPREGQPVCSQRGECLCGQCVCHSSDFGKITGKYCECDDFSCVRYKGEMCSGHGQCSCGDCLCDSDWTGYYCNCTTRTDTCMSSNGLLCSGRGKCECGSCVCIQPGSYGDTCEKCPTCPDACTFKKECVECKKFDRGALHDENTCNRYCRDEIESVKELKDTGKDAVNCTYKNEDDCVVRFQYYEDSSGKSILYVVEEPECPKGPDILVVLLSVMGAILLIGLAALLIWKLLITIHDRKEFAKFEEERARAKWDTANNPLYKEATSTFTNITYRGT
Chain of Fibronectin receptor (Integrin alpha-5/beta-1 and alpha-V/beta-3) (Homo sapiens) (P05556 whole entry, looked up): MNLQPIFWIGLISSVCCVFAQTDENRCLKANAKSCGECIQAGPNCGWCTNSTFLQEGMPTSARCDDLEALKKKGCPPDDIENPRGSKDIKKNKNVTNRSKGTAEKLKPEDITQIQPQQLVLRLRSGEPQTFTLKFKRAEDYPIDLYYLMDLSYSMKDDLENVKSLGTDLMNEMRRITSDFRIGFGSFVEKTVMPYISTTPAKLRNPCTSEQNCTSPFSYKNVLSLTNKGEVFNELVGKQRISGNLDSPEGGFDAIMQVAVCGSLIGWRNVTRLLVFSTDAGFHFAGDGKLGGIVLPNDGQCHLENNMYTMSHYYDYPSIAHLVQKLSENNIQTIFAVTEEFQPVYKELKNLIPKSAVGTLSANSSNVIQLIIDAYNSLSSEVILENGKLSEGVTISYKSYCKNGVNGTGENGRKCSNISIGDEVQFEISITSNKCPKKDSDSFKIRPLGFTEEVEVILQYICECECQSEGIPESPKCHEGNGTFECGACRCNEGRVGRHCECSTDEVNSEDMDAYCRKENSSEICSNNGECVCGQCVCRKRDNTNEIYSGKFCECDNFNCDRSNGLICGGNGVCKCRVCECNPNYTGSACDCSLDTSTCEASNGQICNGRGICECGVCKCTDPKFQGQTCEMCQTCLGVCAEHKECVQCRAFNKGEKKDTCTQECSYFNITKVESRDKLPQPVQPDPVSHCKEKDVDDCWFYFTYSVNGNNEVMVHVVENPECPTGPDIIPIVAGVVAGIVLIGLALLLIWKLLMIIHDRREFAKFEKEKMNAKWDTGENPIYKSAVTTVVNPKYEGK
Chain of Fibronectin receptor (Integrin alpha-5/beta-1 and alpha-V/beta-3) (Homo sapiens) (P06756 whole entry, looked up): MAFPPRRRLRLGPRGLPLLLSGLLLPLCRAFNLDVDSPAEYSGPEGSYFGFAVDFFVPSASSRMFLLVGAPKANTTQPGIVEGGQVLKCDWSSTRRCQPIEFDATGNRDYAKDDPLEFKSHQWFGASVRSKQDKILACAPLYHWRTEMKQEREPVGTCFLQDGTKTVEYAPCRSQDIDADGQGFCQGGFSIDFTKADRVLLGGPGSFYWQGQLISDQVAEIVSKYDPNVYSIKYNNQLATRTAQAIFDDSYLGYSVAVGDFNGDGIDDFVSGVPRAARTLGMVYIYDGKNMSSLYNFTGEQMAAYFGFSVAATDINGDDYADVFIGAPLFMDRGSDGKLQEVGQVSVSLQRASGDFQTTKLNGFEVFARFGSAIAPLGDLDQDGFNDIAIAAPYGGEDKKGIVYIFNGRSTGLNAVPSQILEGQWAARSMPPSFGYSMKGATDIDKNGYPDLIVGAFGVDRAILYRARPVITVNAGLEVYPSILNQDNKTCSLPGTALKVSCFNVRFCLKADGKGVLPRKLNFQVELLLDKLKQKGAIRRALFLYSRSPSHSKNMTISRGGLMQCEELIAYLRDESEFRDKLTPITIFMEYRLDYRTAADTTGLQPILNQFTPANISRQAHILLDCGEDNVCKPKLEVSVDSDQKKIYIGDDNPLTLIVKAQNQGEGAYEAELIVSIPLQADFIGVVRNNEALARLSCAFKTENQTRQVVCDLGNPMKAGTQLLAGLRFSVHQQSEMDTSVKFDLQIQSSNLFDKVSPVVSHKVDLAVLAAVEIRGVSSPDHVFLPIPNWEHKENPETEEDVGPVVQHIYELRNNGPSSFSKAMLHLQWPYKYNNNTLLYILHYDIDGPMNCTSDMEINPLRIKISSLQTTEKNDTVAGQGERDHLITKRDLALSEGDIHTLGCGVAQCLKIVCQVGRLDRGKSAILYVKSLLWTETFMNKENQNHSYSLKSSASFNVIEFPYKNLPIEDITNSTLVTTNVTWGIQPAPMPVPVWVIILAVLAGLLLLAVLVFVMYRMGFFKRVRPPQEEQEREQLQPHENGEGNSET
Chain of Fibronectin receptor (Integrin alpha-5/beta-1 and alpha-V/beta-3) (Homo sapiens) (P08648 whole entry, looked up): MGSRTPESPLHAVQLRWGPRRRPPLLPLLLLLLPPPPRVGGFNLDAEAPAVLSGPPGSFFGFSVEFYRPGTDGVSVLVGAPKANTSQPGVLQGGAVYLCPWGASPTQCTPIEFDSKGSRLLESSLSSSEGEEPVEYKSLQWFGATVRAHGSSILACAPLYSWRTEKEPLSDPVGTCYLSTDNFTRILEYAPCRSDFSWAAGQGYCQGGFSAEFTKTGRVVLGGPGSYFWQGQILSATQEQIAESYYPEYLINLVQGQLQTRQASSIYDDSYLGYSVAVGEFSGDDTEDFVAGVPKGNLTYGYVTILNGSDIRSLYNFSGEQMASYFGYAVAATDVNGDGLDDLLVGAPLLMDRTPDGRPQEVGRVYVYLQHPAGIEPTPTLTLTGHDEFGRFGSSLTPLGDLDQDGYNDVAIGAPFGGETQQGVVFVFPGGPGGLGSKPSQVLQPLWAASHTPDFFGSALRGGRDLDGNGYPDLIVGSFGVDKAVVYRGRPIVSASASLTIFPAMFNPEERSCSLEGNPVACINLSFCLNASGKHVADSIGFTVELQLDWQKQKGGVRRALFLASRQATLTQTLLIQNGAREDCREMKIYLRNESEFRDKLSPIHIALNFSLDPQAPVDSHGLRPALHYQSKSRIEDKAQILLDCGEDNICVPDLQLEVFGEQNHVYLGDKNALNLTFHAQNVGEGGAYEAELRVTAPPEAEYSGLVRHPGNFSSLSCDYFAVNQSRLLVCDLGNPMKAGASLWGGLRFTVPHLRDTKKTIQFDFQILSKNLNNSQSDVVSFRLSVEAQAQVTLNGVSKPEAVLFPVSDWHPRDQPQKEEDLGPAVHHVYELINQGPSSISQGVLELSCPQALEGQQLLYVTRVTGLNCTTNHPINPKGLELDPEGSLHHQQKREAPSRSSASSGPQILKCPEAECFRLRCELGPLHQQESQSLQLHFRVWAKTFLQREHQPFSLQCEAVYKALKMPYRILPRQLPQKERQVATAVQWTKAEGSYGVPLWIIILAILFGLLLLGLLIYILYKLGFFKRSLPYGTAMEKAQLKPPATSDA

Integrin alpha-V/beta-3 [2] = target: T1, Integrin alpha-V/beta-3 (Homo sapiens, UniProt P05106+P06756); experiment: Inhibition of fibrinogen binding to K562 cells expressing integrin alphaV-beta3; format: cell-based
Homo sapiens = species: Homo sapiens; experiment: Selectivity ratio for alphaV-beta5 over alphaV-beta3 integrins
[3] = target: Integrin alpha-V/beta-3 and alpha-IIb/beta 3 (Homo sapiens) (UniProt P05106+P06756+P08514); experiment: Selectivity ratio for alphaIIb-beta3 over alphaV-beta3 integrins; format: protein assay
Integrin alpha-V/beta-3 [4] = target: T1, Integrin alpha-V/beta-3; experiment: Inhibition of fibrinogen binding to integrin alphaV-beta3 receptor; format: protein-complex assay
Integrin alpha-5/beta-1 = Integrin alpha-5/beta-1 (Homo sapiens, UniProt P05556+P08648); experiment: Inhibition of fibronectin binding to K562 cells expressing integrin alpha5-beta1
[5] = target: Integrin alpha-IIb/beta-3 (Homo sapiens, UniProt P05106+P08514); experiment: Inhibition of fibrinogen binding to integrin alphaIIb-beta3; format: protein-complex assay
Gallus gallus [6] = species: Gallus gallus; experiment: Inhibition of VEGF-mediated angiogenesis in the chick CAM assay expressed as capillary formation at 3 ug/mesh conc.; format: functional
Gallus gallus [7] = species: Gallus gallus; experiment: Inhibition of VEGF-mediated angiogenesis in the chick CAM assay expressed as capillary formation at 17 ug/mesh conc.; format: functional
Gallus gallus [8] = species: Gallus gallus; experiment: Inhibition of VEGF-mediated angiogenesis in the chick CAM assay expressed as capillary formation at 33 ug/mesh conc.; format: functional

pIC50 (Integrin alpha-V/beta-5)	Ratio [1]	pIC50 (Integrin alpha-V/beta-3 [2])	Ratio (Homo sapiens)	Ratio [3]	pIC50 (Integrin alpha-V/beta-3 [4])	pIC50 (Integrin alpha-5/beta-1)	pIC50 [5]	SMILES	Inhibition (Gallus gallus [6]) [%]	Inhibition (Gallus gallus [7]) [%]	Inhibition (Gallus gallus [8]) [%]
8.60	28300	12.04	2720	300	8.85	7.59	9.51	Cc1cc(C)c(S(=O)(=O)N[C@@H](CNC(=O)c2ccc(-c3cccc(NC(=N)N)c3)s2)C(=O)O)c(C)c1	–	–	–
–	–	5.42	–	< 0.1	7.15	–	11.89	N=C(N)Nc1ccc(-c2ccc(C(=O)NC[C@H](NS(=O)(=O)c3ccccc3)C(=O)O)s2)cc1	–	–	–
–	–	7.68	–	< 0.1	10.40	–	11.24	N=C(N)NCc1ccccc1-c1ccc(C(=O)NC[C@H](NS(=O)(=O)c2ccccc2)C(=O)O)s1	–	–	–
–	–	6.14	–	< 0.1	8.68	–	8.21	N=C(N)NCc1ccc(-c2ccc(C(=O)NC[C@H](NS(=O)(=O)c3ccccc3)C(=O)O)s2)cc1	–	–	–
–	500	9.72	33	3	9.00	7.02	9.23	N=C(N)Nc1cccc(-c2ccc(C(=O)NC[C@H](NS(=O)(=O)c3ccccc3)C(=O)O)s2)c1.O=C(O)C(F)(F)F	29	66	98
–	6	7.96	1	< 0.1	8.47	–	9.80	Cc1cc(C)c(S(=O)(=O)N[C@@H](CNC(=O)c2ccc(-c3cccc(CN=C(N)N)c3)s2)C(=O)O)c(C)c1.O=C(O)C(F)(F)F	65	91	95
–	864	9.13	97	< 0.5	8.66	–	9.47	N=C(N)NCc1cccc(-c2ccc(C(=O)NC[C@H](NS(=O)(=O)c3ccccc3)C(=O)O)s2)c1.O=C(O)C(F)(F)F	29	42	57
–	–	5.27	–	< 0.1	5.26	–	9.60	N=C(N)Nc1ccccc1-c1ccc(C(=O)NC[C@H](NS(=O)(=O)c2ccccc2)C(=O)O)s1	–	–	–
